In patent US20160272617A1, “SUBSTITUTED PHENYLALANINE DERIVATIVES” (BAYER PHARMA AKTIENGESELLSCHAFT, priority 2013, published 2016):
pIC50: −log10 of the molar value. Counter-ions that a name gives are not always drawn.

Experiments:
human plasmin = biological target: T1, human plasmin (Homo sapiens, UniProt P00747); assay: Measurement of plasmin inhibition (fluorogenic peptide substrate MeOSuc-Ala-Phe-Lys-AMC); type: biochemical; conditions: plasmin from Kordia, 15 min preincubation, 30 min at 22° C., fluorescence
T1 construct: purchased Kordia
T1 sequence (P00747 581-810 limits assumed): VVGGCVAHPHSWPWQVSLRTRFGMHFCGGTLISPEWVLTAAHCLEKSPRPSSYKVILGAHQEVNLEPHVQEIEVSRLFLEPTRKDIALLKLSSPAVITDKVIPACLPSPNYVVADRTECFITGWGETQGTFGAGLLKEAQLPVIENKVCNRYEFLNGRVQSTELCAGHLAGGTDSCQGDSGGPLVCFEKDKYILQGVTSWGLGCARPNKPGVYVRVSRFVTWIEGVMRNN
T1 sequence (P00747 97-580 partner limits assumed): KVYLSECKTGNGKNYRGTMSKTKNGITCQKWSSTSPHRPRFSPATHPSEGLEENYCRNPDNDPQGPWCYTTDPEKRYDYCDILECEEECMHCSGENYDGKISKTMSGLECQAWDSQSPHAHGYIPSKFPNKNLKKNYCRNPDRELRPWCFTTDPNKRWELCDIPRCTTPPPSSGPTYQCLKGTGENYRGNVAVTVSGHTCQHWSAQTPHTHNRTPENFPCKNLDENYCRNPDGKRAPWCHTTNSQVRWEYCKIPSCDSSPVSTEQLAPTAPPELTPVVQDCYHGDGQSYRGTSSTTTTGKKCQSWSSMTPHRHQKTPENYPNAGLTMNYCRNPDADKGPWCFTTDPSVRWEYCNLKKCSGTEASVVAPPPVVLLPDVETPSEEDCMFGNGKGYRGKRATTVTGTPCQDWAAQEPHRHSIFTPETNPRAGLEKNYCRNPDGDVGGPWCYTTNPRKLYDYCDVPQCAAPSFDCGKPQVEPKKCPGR
Description: The plasmin inhibition of the inventive substances is determined using a biochemical test system which utilizes the reaction of a peptidic plasmin substrate to determine the enzymatic activity of human plasmin. Here, plasmin cleaves from the peptic plasmin substrate the C-terminal aminomethylcoumarin (AMC), the fluorescence of which is measured. The determinations are carried out in microtitre plates.
Test substances are dissolved in dimethyl sulphoxide and serially diluted in dimethyl sulphoxide (3000 μM to 0.0078 μM; resulting final concentrations in the test: 50 μM to 0.00013 μM). In each case 1 μl of the diluted substance solutions are placed into the wells of white microtitre plates from Greiner (384 wells). Subsequently, the following are added successively: 20 μl of assay buffer (50 mmol/Tris buffer pH 7.4; 100 mmol/l sodium chloride; 5 mmol/calcium chloride; 0.1% bovine serum albumin) and 20 μl of plasmin from Kordia (0.3 μg/ml in assay buffer) are then added successively. After 15 min of incubation, the enzyme reaction is started by addition of 20 μl of the plasmin substrate MeOSuc-Ala-Phe-Lys-AMC dissolved in assay buffer (150 μM in assay buffer) from Bachem, the mixture is incubated at room temperature (22° C.) for 30 min and fluorescence is then measured (excitation: 360 nm, emission: 460 nm). The measured emissions of the test batches with test substance are compared to those of control batches without test substance (only dimethyl sulphoxide instead of test substance in dimethyl sulphoxide), and the IC50 values are calculated from the concentration/activity relationships.

human and animal plasma = assay: Determination of anticoagulatory activity: activated partial thromboplastin time (aPTT) in plasma; conditions: concentration of test substance which brings about a 1.5-fold extension of the aPTT; plasma species not given
Procedure, shortened: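 Citrated plasma (1:9, 0.11 M citrate; 4000 g, 15 min) from human or animal blood incubated with test compound and cephalin/kaolin PTT reagent for 3 min at 37° C.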

human factor XIa = biological target: T2, human factor XIa (Homo sapiens, UniProt P03951); assay: Measurement of FXIa inhibition (fluorogenic peptide substrate Boc-Glu(OBzl)-Ala-Arg-AMC); type: biochemical; conditions: factor XIa from Kordia, 15 min preincubation, 30 min at 22° C., fluorescence
T2 construct: purchased Kordia
T2 sequence (P03951 388-625 limits assumed): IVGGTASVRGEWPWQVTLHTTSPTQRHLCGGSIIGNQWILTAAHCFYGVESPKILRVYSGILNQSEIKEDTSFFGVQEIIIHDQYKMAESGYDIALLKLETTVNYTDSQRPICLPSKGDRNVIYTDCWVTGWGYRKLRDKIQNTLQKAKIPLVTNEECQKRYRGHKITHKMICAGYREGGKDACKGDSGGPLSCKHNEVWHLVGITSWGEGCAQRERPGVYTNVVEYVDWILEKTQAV
T2 sequence (P03951 19-387 partner limits assumed): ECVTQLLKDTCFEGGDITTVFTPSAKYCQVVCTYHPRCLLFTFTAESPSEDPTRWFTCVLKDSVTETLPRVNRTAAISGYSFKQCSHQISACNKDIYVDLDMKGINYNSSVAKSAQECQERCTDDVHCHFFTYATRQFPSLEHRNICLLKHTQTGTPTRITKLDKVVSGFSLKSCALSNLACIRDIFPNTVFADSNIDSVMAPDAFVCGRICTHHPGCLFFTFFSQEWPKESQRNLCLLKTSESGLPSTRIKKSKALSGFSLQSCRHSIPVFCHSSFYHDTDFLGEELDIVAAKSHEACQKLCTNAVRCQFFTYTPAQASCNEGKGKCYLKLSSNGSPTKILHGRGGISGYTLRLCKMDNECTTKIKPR
Procedure, shortened: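 Released AMC fluorescence (360/460 nm) read after 30 min at 22 °C. The reaction was started with Boc-Glu(OBzl)-Ala-Arg-AMC (10 μM stock) after a 15 min preincubation of the enzyme (0.45 nM stock) with compound (final 50 μM to 0.00013 μM).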

SMILES | pIC50 (human plasmin) | aPTT (human and animal plasma) [µmol/L] | pIC50 (human factor XIa)
Cc1cc(C(=O)N[C@@H](C)C(F)(F)F)ccc1-c1ccc(C[C@H](NC(=O)[C@H]2CC[C@H](CN)CC2)C(=O)Nc2ccc3[nH]c(=O)[nH]c3c2)cc1 [Example 133, 4′-{(2S)-2-({[trans-4-(Aminomethyl)cyclohexyl]carbonyl}amino)-3-oxo-3-[(2-oxo-2,3-dihydro-1H-benzimidazol-5-yl)amino]propyl}-2-methyl-N-[(2S)-1,1,1-trifluoropropan-2-yl]biphenyl-4-carboxamide] | 8.80 | 0.1 | 8.17
Cc1cc(C(=O)NC2CCC2)ccc1-c1ccc(C[C@H](NC(=O)[C@H]2CC[C@H](CN)CC2)C(=O)Nc2ccc(-c3nnn[nH]3)cc2)cc1 [Example 138, 4′-[(2S)-2-({[trans-4-(Aminomethyl)cyclohexyl]carbonyl}amino)-3-oxo-3-{[4-(1H-tetrazol-5-yl)phenyl]amino}propyl]-N-cyclobutyl-2-methylbiphenyl-4-carboxamide hydrochloride] | 8.64 | 0.25 | 9.08
Cc1cc(C(=O)NC(C)CO)ccc1-c1ccc(C[C@H](NC(=O)[C@H]2CC[C@H](CN)CC2)C(=O)Nc2ccc(-c3nnn[nH]3)cc2)cc1 (stereo partly drawn) [Example 139, 4′-[(2S)-2-({[trans-4-(Aminomethyl)cyclohexyl]carbonyl}amino)-3-oxo-3-{[4-(1H-tetrazol-5-yl)phenyl]amino}propyl]-N-(1-hydroxypropan-2-yl)-2-methylbiphenyl-4-carboxamide hydrochloride] | 7.89 | 0.17 | 8.39
Cc1cc(C(=O)NC(C)C)ccc1-c1ccc(C[C@H](NC(=O)[C@H]2CC[C@H](CN)CC2)C(=O)Nc2ccc3c(c2)[nH]c(=O)n3C)cc1 [Example 140, 4′-{(2S)-2-({[trans-4-(Aminomethyl)cyclohexyl]carbonyl}amino)-3-[(1-methyl-2-oxo-2,3-dihydro-1H-benzimidazol-5-yl)amino]-3-oxopropyl}-N-isopropyl-2-methylbiphenyl-4-carboxamide hydrochloride] | 8.82 | 0.25 | 7.89
Cc1cc(C(=O)NC(C)C)ccc1-c1ccc(C[C@H](NC(=O)[C@H]2CC[C@H](CN)CC2)C(=O)Nc2cc(Cl)c3[nH]c(=O)[nH]c3c2)cc1 [Example 158, 4′-{(2S)-2-({[trans-4-(Aminomethyl)cyclohexyl]carbonyl}amino)-3-[(7-chloro-2-oxo-2,3-dihydro-1H-benzimidazol-5-yl)amino]-3-oxopropyl}-N-isopropyl-2-methylbiphenyl-4-carboxamide hydrochloride] | 9.37 | 0.1 | 8.42
Cc1cc(C(=O)NC(C)C)ccc1-c1ccc(C[C@H](NC(=O)[C@H]2CC[C@H](CN)CC2)C(=O)Nc2ccc3nc[nH]c3c2)cc1 [Example 142, 4′-[(2S)-2-({[trans-4-(Aminomethyl)cyclohexyl]carbonyl}amino)-3-(1H-benzimidazol-6-ylamino)-3-oxopropyl]-N-isopropyl-2-methylbiphenyl-4-carboxamide hydrochloride] | 8.68 | 0.33 | 7.82
Cc1cc(C(=O)NC2CC2)ccc1-c1ccc(C[C@H](NC(=O)[C@H]2CC[C@H](CN)CC2)C(=O)Nc2ccc3cn[nH]c3c2)cc1 [Example 167, 4′-[(2S)-2-({[trans-4-(Aminomethyl)cyclohexyl]carbonyl}amino)-3-(1H-indazol-6-ylamino)-3-oxopropyl]-N-cyclopropyl-2-methylbiphenyl-4-carboxamide hydrochloride] | 8.72 | 0.12 | 8.22
Cc1cc(C(=O)NC(C)C)ccc1-c1ccc(C[C@H](NC(=O)[C@H]2CC[C@H](CN)CC2)C(=O)Nc2ccc3c(=O)[nH][nH]c3c2)cc1 [Example 135, 4′-{(2S)-2-({[trans-4-(Aminomethyl)cyclohexyl]carbonyl}amino)-3-oxo-3-[(3-oxo-2,3-dihydro-1H-indazol-6-yl)amino]propyl}-N-isopropyl-2-methylbiphenyl-4-carboxamide hydrochloride] | 9.02 | 0.24 | 8.66
Cc1cc(C(=O)NC2CC(O)C2)ccc1-c1ccc(C[C@H](NC(=O)[C@H]2CC[C@H](CN)CC2)C(=O)Nc2ccc3cn[nH]c3c2)cc1 (stereo partly drawn) [Example 164, 4′-[(2S)-2-({[trans-4-(Aminomethyl)cyclohexyl]carbonyl}amino)-3-(1H-indazol-6-ylamino)-3-oxopropyl]-N-(3-hydroxycyclobutyl)-2-methylbiphenyl-4-carboxamide hydrochloride] | 7.89 | 0.13 | 8.12
Cc1cc(C(=O)N2CCC3CNC(=O)C32)ccc1-c1ccc(C[C@H](NC(=O)[C@H]2CC[C@H](CN)CC2)C(=O)Nc2ccc3cn[nH]c3c2)cc1 (stereo partly drawn) [Example 163, trans-4-(Aminomethyl)-N-[(2S)-1-(1H-indazol-6-ylamino)-3-{2′-methyl-4′-[(6-oxohexahydropyrrolo[3,4-b]pyrrol-1(2H)-yl)carbonyl]biphenyl-4-yl}-1-oxopropan-2-yl]cyclohexanecarboxamide hydrochloride] | 8.06 | 0.07 | 8.00
CC(NC(=O)c1ccc(-c2ccc(CC(NC(=O)[C@H]3CC[C@H](CN)CC3)C(=O)Nc3ccc(-c4nnn[nH]4)cc3)cc2)c(Cl)c1)C1CC1 (stereo partly drawn) [Example 136, hydrochloride] | 8.82 | 0.29 | 8.92
Cc1cc(C(=O)NC2CC2)ccc1-c1ccc(C[C@H](NC(=O)[C@H]2CC[C@H](CN)CC2)C(=O)Nc2ccc3[nH]nnc3c2)cc1 [Example 141, 4′-[(2S)-2-({[trans-4-(Aminomethyl)cyclohexyl]carbonyl}amino)-3-(1H-benzotriazol-5-ylamino)-3-oxopropyl]-N-cyclopropyl-2-methylbiphenyl-4-carboxamide hydrochloride] | 8.80 | 0.30 | 8.41
